Three compounds from US8927576B2, “HCV inhibitor and therapeutic agent combinations” (PTC Therpeutics, Inc., priority 2009, dated 2015) can be followed below.

For this assay, the system named is HCV replicon (replicon cells). Kind of assay: Replicon response to antiviral agent(s): luciferase replicon inhibition, combination of HCV inhibitor and therapeutic agent. As to conditions: in combination with Cpd 661; range over the combination ratios (Cpd 661:agent) tested; replicon cells treated three days; luciferase (Bright Glo). It is filed as cell-based. As for the experimental part:
Replicon cells were seeded at 5000 cells/well in 96-well plates and were treated with a HCV inhibitor and/or a HCV therapeutic agent for three days. The growth medium consisted of a final concentration of 0.5% DMSO and 10% fetal bovine serum.
The HCV therapeutic agents, an interferon-α, a NS5b HCV polymerase inhibitor Compound 1p and a NS3/NS4a HCV protease inhibitor Compound 2p in the compound treatment samples were each serially diluted to the concentration ratios indicated in Table 1. Replicon cells in the untreated control were not treated with a HCV inhibitor or therapeutic agent. To each concentration of therapeutic agent, the HCV inhibitor Compound 661 was titrated. After three days, Bright Glo agent was used to detect luciferase activity. The activity of the medium without cells was measured as the background control. Replicon inhibition was calculated using the following formula: […]
Background: Replicon systems follow genome replication, usually without infectious particles.
For the compound interferon-α, the “Combination Index IC50” value is reported as 0.36-0.84, the “Combination Index IC75” value is reported as 0.42-0.78 and the “Combination Index IC90” value is on record as 0.35-0.72.

For `CC(C)CCn1c(=O)c(C2=Nc3ccccc3S(=O)(=O)N2)c(O)c2ccccc21` [Cpd 1p, 3-(1,1-dioxido-2H-1,2,4-benzothiadiazin-3-yl)-4-hydroxy-1-(3-methylbutyl)quinolin-2(1H)-one], the “Combination Index IC50” value was 0.19-0.94, the “Combination Index IC75” value is 0.13-0.61 and the “Combination Index IC90” value is on record as 0.09-0.4.

On to `C=C[C@H]1C[C@@]1(NC(=O)[C@@H]1C[C@@H](Oc2cc(-c3ccccc3)nc3cc(OC)ccc23)CN1C(=O)[C@@H](NC(=O)OC(C)(C)C)C(C)(C)C)C(=O)NS(=O)(=O)C1CC1` [Cpd 2p, N-(tert-butoxycarbonyl)-3-methyl-L-valyl-(4R)-N-{(1S,2R)-1-[(cyclopropylsulfonyl)carbamoyl]-2-ethenylcyclopropyl}-4-[(7-methoxy-2-phenylquinolin-4-yl)oxy]-L-prolinamide], for which the “Combination Index IC50” value was 0.26-0.91, the “Combination Index IC75” value was 0.27-0.66 and the “Combination Index IC90” value was 0.29-0.48.
